Tested on: modified version of the GPR119 receptor (94% identity to human receptor)
Assay: cAMP production assay (LANCE cAMP kit, TR-FRET) in HEK-293 cells
Assay type: cell-based
Settings: for cAMP production in HEK-293 cells: HEK-293 cells stably expressing modified GPR119, test compounds 0.2 nM to 10 μM, one-hour incubation at ambient temperature; for Fold over baseline: increase in cAMP relative to basal levels, agonist activity if 1.5-fold or greater
Procedure, shortened: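 Doxycycline-induced (1 μg/mL, overnight) HEK-293 cells expressing modified GPR119 were thawed, 2000 cells/well, and exposed to compounds (0.2 nM-10 μM final, 0.5% DMSO) for 1 h at ambient temperature in HBSS/HEPES/BSA. cAMP was measured by LANCE TR-FRET against a standard curve. Agonism was defined as ≥1.5-fold over basal.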

| SMILES | cAMP production in HEK-293 cells [nmol] | Fold over baseline |
| --- | --- | --- |
| CCc1cnc(N2CCC(N3CC[C@H](Nc4ccc(S(=O)(=O)CC)cc4F)C3=O)CC2)nc1 [Example 34, (S)-1-(1-(5-ethylpyrimidin-2-yl)piperidin-4-yl)-3-(4-(ethylsulfonyl)-2-fluorophenylamino)pyrrolidin-2-one] | 11.4 | 2.8 |
| CCc1cnc(N2CCC(N3CCC(Oc4cc(F)c(S(C)(=O)=O)cc4F)C3=O)CC2)nc1 (stereo not shown) [Example 87, 3-(2,5-difluoro-4-(methylsulfonyl)phenoxy)-1-(1-(5-ethylpyrimidin-2-yl)piperidin-4-yl)pyrrolidin-2-one trifluoroactetate] | 5.5 | 1.8 |
| CN(CCO)C(=O)c1ccc(O[C@H]2CCN(C3CCN(c4ncc(Cl)cc4F)CC3)C2=O)c(F)c1 [Example 154, (S)-4-(1-(1-(5-chloro-3-fluoropyridin-2-yl)piperidin-4-yl)-2-oxopyrrolidin-3-yloxy)-3-fluoro-N-(2-hydroxyethyl)-N-methylbenzamide] | 14.6 | 3.1 |
| CS(=O)(=O)c1ccc(N[C@H]2CCN(C3CCN(c4ncc(C(F)(F)F)cc4F)CC3)C2=O)c(F)c1 [Example 114, (S)-3-(2-fluoro-4-(methylsulfonyl)phenyl-amino)-1-(1-(3-fluoro-5-(trifluoromethyl)pyridin-2-yl)piperidin-4-yl)pyrrolidin-2-one] | 17.7 | 3.8 |
| CS(=O)(=O)c1cc(F)c(N[C@H]2CCN(C3CCN(c4cnc(C#N)cn4)CC3)C2=O)cc1F [Example 16, (S)-5-(4-(3-(2,5-difluoro-4-(methylsulfonyl)phenylamino)-2-oxopyrrolidin-1-yl)piperidin-1-yl)pyrazine-2-carbonitrile] | 21.4 | 4.0 |
| CS(=O)(=O)c1ccc(O[C@H]2CCN(C3CCN(c4ncc(C(F)(F)F)cc4Cl)CC3)C2=O)cn1 [Example 143, (S)-1-(1-(3-chloro-5-(trifluoromethyl)pyridin-2-yl)piperidin-4-yl)-3-(6-(methylsulfonyl)pyridin-3-yloxy) pyrrolidin-2-one] | 13.3 | 4.3 |
| COc1cnc(N2CCC(N3CC[C@H](Nc4ccc(S(C)(=O)=O)cc4F)C3=O)CC2)cn1 [Example 160, (S)-3-(2-fluoro-4-(methylsulfonyl)phenylamino)-1-(1-(5-methoxypyrazin-2-yl)piperidin-4-yl)pyrrolidin-2-one] | 22.3 | 3.9 |
| CCc1cnc(N2CCC(N3CCC[C@H](Oc4cc(F)c(S(C)(=O)=O)cc4F)C3=O)CC2)nc1 [Example 165, (S)-3-(2,5-difluoro-4-(methylsulfonyl)phenoxy)-1′-(5-ethylpyrimidin-2-yl)-[1,4′-bipiperidin]-2-one] | 16.0 | 3.2 |
| CS(=O)(=O)c1ccc(N[C@H]2CCN(C3CCN(c4ncc(Cl)cc4F)CC3)C2=O)c(F)c1 [Example 115, (S)-1-(1-(5-chloro-3-fluoropyridin-2-yl)piperidin-4-yl)-3-(2-fluoro-4-(methylsulfonyl)phenyl-amino)pyrrolidin-2-one] | 15.4 | 3.8 |
| CS(=O)(=O)c1cc(F)c(N[C@H]2CCCN(C3CCN(c4ccc(Cl)nn4)CC3)C2=O)cc1F [Example 52, (S)-1′-(6-chloropyridazin-3-yl)-3-(2,5-difluoro-4-(methylsulfonyl)phenylamino)-[1,4′-bipiperidin]-2-one] | 19.6 | 4.6 |
| N#Cc1ccc(N[C@H]2CCN(C3CCN(c4ncc(C(F)(F)F)cc4Cl)CC3)C2=O)c(F)c1 [Example 152, (S)-4-(1-(1-(3-chloro-5-(trifluoromethyl)pyridin-2-yl)piperidin-4-yl)-2-oxopyrrolidin-3-ylamino)-3-fluorobenzonitrile] | 26.6 | 3.3 |
| CS(=O)(=O)c1ccc(N[C@H]2CCN(C3CCN(c4nccnc4C#N)CC3)C2=O)c(F)c1 [Example 132, (S)-3-(4-(3-(2-fluoro-4-(methylsulfonyl)phenyl-amino)-2-oxopyrrolidin-1-yl)piperidin-1-yl)pyrazine-2-carbonitrile] | 9.1 | 1.5 |
| CS(=O)(=O)c1ccc(N[C@H]2CCN(C3CCN(c4cnc(C(F)(F)F)nc4)CC3)C2=O)c(F)c1 [Example 158, (S)-3-(2-fluoro-4-(methylsulfonyl)phenylamino)-1-(1-(2-(trifluoromethyl)pyrimidin-5-yl)piperidin-4-yl)pyrrolidin-2-one] | 12.5 | 3.2 |
| Cc1nnc(-c2ccc(O[C@H]3CCN(C4CCN(c5cnc(Cl)cn5)CC4)C3=O)c(F)c2)o1 [Example 71, (S)-1-(1-(5-chloropyrazin-2-yl)piperidin-4-yl)-3-(2-fluoro-4-(5-methyl-1,3,4-oxadiazol-2-yl)phenoxy)pyrrolidin-2-one] | 17.6 | 5.6 |
| CCS(=O)(=O)c1ccc(N[C@H]2CCN(C3CCN(c4cnc(Cl)cn4)CC3)C2=O)c(F)c1 [Example 17, (S)-1-(1-(5-chloropyrazin-2-yl)piperidin-4-yl)-3-(4-(ethylsulfonyl)-2-fluorophenylamino)pyrrolidin-2-one] | 107.3 | 5.3 |
| CS(=O)(=O)c1ccc(O[C@H]2CCN(C3CCN(c4ncc(C(F)(F)F)cc4F)CC3)C2=O)cn1 [Example 142, (S)-1-(1-(3-fluoro-5-(trifluoromethyl)pyridin-2-yl)piperidin-4-yl)-3-(6-(methylsulfonyl)pyridin-3-yloxy) pyrrolidin-2-one] | 21.7 | 8.3 |
| Cc1cc(N[C@H]2CCN(C3CCN(c4cnc(Cl)cn4)CC3)C2=O)cnc1S(C)(=O)=O (stereo in doubt) [Example 135, 1-(1-(5-chloropyrazin-2-yl)piperidin-4-yl)-3-(5-methyl-6-(methylsulfonyl)pyridin-3-ylamino)pyrrolidin-2-one] | 31.0 | 6.6 |
| CS(=O)(=O)c1cc(F)c(O[C@H]2CCN(C3CCN(c4ncc(-c5ccccc5)cn4)CC3)C2=O)cc1F [Example 92, S-3-(2,5-difluoro-4-(methylsulfonyl)phenoxy)-1-(1-(5-phenylpyrimidin-2-yl)piperidin-4-yl)pyrrolidin-2-one] | 16.6 | 3.0 |
| Cc1cc(S(C)(=O)=O)ncc1N[C@H]1CCN(C2CCN(c3ncc(Cl)cc3Cl)CC2)C1=O [Example 125, (S)-1-(1-(3,5-dichloro-pyridin-2-yl)piperidin-4-yl)-3-(4-methyl-6-(methylsulfonyl)pyridin-3-ylamino)pyrrolidin-2-one] | 9.0 | 2.0 |
| CCc1cnc(N2CCC(N3CCC[C@H](Nc4ccc(S(C)(=O)=O)cc4F)C3=O)CC2)nc1 [Example 40, (S)-1′-(5-ethylpyrimidin-2-yl)-3-(2-fluoro-4-(methylsulfonyl)phenylamino)-[1,4′-bipiperidin]-2-one] | 12.4 | 2.2 |

Source: patent publication US8754226B2, “Piperidinyl-substituted lactams as GPR119 modulators” (Array BioPharma Inc., priority 2010, dated 2014)
